The numbers were not newly measured in patent publication US11395831B2, “Combination products of tobramycin compounds and dexameihasone compounds” (Somerset Therapeutics, LLC, priority 2020, dated 2022), which cites them from elsewhere.

≈ marks a conversion by molar mass, not a printed value.

Regarding `NC[C@H]1O[C@H](O[C@H]2[C@H](O)[C@@H](O[C@H]3O[C@H](CO)[C@@H](O)[C@H](N)[C@H]3O)[C@H](N)C[C@@H]2N)[C@H](N)C[C@@H]1O` [tobramycin, 0-{3-amino-3-deoxy-α-D-gluco-pyranosyl-(1→4)}-0-{2,6-diamino-2,3,6-trideoxy-α-D-ribohexo-pyranosyl-(1→6)}-2-deoxystreptamine], the solubility in water is 94 mg/mL (≈ 201 mM).
